Assay results reported in patent US20070218002A1, “Method for Detecting Alzheimer's Disease and other Forms of Dementia, and Measuring Their Progression” (priority 2004, published 2007).
“And” between values parts separate entries of the source, which are not always exact repeats. Equal entries are not always repeated.

What was measured:
glucose metabolism = assay: [F-18]FDG PET, relative standardized uptake value; type: in vivo, human; details: normalized to motor cortex
Description: (§1) All scans were performed with ECAT HR or ECAT HR+ scanners (Siemens-CTI, Knoxville, Tenn.). The subjects were in the supine position with the imaging plane parallel to the orbito-meatal line and with their eyes open and ears unoccluded. A 20 min transmission scan was performed to correct PET data for radiation attenuation. 320-550 MBq of a PET tracer was injected as a bolus injection via the in-dwelling venous catheter, and the consecutive dynamic head PET scans were performed for 1 hour with [F-18]FDG or for 2 hours with [F-18]MPPF or with [F-18]FDDNP.
(§2) All PET scans were decay corrected and reconstructed using filtered-back projection (Hann filter, 5 mm FWHM) with scatter and attenuation correction. The resulting images contained either 47 contiguous slices with 3.4 mm plane-to-pane separation (EXACT HR) or 63 contiguous slices with the plane-to-plane separation of 2.42 mm (EXACT HR+).
The dynamic [F-18]FDG PET images were summed (frames 30-60min) and the resulting image was used for the following analysis: ROIs were drawn bilaterally on transaxially oriented images on the gray matter signal in the frontal lobe, parietal lobe, lateral temporal lobe, and medial temporal lobe. In addition, one ROI was drawn on the posterior cingulated gyrus. ROIs were also drawn bilaterally on the motor cortex as a reference region. Values for each ROI were extracted and relative standardized uptake values were calculated for each region separately. The average of both ROIs from the same region was divided by the average of ROI values for the motor cortex. In a similar way, the ROI value for the posterior cingulated gyrus was normalized by the average value for motor cortex. Finally the global [F-18]FDG SUVR index was calculated for the parietal, medial temporal, and lateral temporal lobes.

5-HT1A receptors = molecular target: T1, 5-HT1A receptors (Homo sapiens, UniProt P08908); assay: In vitro [F-18]MPPF digital autoradiography on whole-hemisphere brain cryosections; type: binding
T1 construct: Glass mounted whole-hemisphere brain cryosections (100 μm thick), cut at the level of hippocampus; from tissue; host or cells: post-mortem human brain, whole-hemisphere cryosections at the level of the hippocampus
T1 sequence (P08908 1-422): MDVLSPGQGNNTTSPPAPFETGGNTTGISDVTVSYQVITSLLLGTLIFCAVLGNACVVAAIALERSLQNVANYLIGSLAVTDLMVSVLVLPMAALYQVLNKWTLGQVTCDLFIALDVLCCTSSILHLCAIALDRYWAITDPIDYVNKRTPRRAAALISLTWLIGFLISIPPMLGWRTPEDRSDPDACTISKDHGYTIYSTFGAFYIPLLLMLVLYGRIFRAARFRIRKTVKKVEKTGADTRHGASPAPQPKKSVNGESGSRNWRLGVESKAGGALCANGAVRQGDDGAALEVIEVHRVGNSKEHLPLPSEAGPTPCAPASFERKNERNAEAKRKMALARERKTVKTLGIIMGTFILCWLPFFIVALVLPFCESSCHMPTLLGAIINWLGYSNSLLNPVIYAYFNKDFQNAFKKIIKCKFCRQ

[1] = molecular target: T2, serotonin 5-HT1A receptors (Homo sapiens, UniProt P08908); assay: [F-18]MPPF PET, Logan plot quantitation of binding potential; type: in vivo
T2 construct: from tissue; host or cells: living human brain (in vivo PET; hippocampus, raphe nuclei, cortical regions)
T2 sequence (P08908 1-422): T1 sequence (P08908 1-422)
Description: as §1, §2
Anatomical brain magnetic resonance scans were obtained using either a 1.5 Tesla magnet (General Electric-Signa, Milwaukee, Wis.) or a 3 Tesla magnet (General Electric-Signa) scanner. […] A double echo, fast spin echo series using a 24-cm field of view and 256×256 matrix with 3 mm/0 gap (TR=6000 [3T] and 2000 [1.5T]; TE=17/85 [3T] and 30/90 [1.5T]) An inter-modality image co-registration program (7) that uses image segmentation and simulation as preprocessing procedures was used to co-register PET and anatomical MRI images of each subject. Rules for ROI drawing were based on the identification of gyral and sulcal landmarks with respect to the atlas of Talairach and Tournoux (8).
Quantitation of [F-18]MPPF binding was performed using Logan plot graphical analysis, using the cerebellum, an area largely devoid of 5-HT1A receptors, as the reference region (9). […] Tracer binding potential (BP=Bmax/Kd) parametric images were analyzed using ROIs drawn bilaterally on hippocampus, lateral temporal lobe, parietal lobe, frontal lobe, and posterior cingulate cortex, and a single ROI on the dorsal raphe nucleus using MRI as a guide. Total binding potentials (BPT, BPT=BP×volume) were determined for left and right hippocampus by multiplying the hippocampal BP values with the hippocampus volumes on co-registered MRI.

[2] = AD subjects compared to control subjects

`OC[C@H]1OC(O)[C@H]([18F])[C@@H](O)[C@@H]1O` (stereo partly drawn) [[F-18]FDG, 2-deoxy-2-[F-18]fluoro-D-glucose] was tested, and the “FDG mean SUVR ± 1 SD, Frontal Lobe” value (glucose metabolism; AD group) was 0.79 ± 0.07, the “FDG mean SUVR ± 1 SD, Global” value (glucose metabolism; AD group) was 0.66 ± 0.04 and the “FDG mean SUVR ± 1 SD, Lateral Temporal Lobe” value (glucose metabolism; AD group) was 0.66 ± 0.07. The “FDG mean SUVR ± 1 SD, Medial Temporal Lobe” value (glucose metabolism; AD group) was 0.66 ± 0.04, the “FDG mean SUVR ± 1 SD, Parietal Lobe” value (glucose metabolism; AD group) was 0.67 ± 0.09 and the “FDG mean SUVR ± 1 SD, Posterior Cingulate Gyrus” value (glucose metabolism; AD group) was 0.79 ± 0.11. The “FDG mean SUVR ± 1 SD, Frontal Lobe” value (glucose metabolism; CTRL group) was 0.95 ± 0.08, the “FDG mean SUVR ± 1 SD, Global” value (glucose metabolism; CTRL group) was 0.80 ± 0.04 and the “FDG mean SUVR ± 1 SD, Lateral Temporal Lobe” value (glucose metabolism; CTRL group) was 0.86 ± 0.06. For the same compound, the “FDG mean SUVR ± 1 SD, Medial Temporal Lobe” value (glucose metabolism; CTRL group) was 0.73 ± 0.02, the “FDG mean SUVR ± 1 SD, Parietal Lobe” value (glucose metabolism; CTRL group) was 0.89 ± 0.06 and the “FDG mean SUVR ± 1 SD, Posterior Cingulate Gyrus” value (glucose metabolism; CTRL group) was 1.05±0.09. The “FDG mean SUVR ± 1 SD, Posterior Cingulate Gyrus” value (glucose metabolism; CTRL group, listed as FDG) was 1.05 ± 0.09, the “FDG mean SUVR ± 1 SD, Frontal Lobe” value (glucose metabolism; MCI group) was 0.90 ± 0.02 and the “FDG mean SUVR ± 1 SD, Global” value (glucose metabolism; MCI group) was 0.77 ± 0.04. The “FDG mean SUVR ± 1 SD, Lateral Temporal Lobe” value (glucose metabolism; MCI group) was 0.81 ± 0.05, the “FDG mean SUVR ± 1 SD, Medial Temporal Lobe” value (glucose metabolism; MCI group) was 0.69 ± 0.03 and the “FDG mean SUVR ± 1 SD, Parietal Lobe” value (glucose metabolism; MCI group) was 0.84 ± 0.05. For the same compound, the “FDG mean SUVR ± 1 SD, Posterior Cingulate Gyrus” value (glucose metabolism; MCI group) was 0.89±0.06 and the “FDG mean SUVR ± 1 SD, Posterior Cingulate Gyrus” value (glucose metabolism; MCI group, listed as FDG) was 0.89 ± 0.06.
`COc1ccccc1N1CCN(CCN(C(=O)c2ccc([18F])cc2)c2ccccn2)CC1` [[F-18]MPPF, 4-[F-18]fluoro-N-{2-[1-(2-methoxyphenyl)-piperazinyl]ethyl}-N-(2-pyridinyl)benzamide] was tested, and the “binding ratio (BR), outer layers of gray matter in the inferior temporal gyrus” value (5-HT1A receptors; AD cases (individual)) was 1.13 and 1.16, the “hippocampal binding ratio (BR), CA1 field/subiculum relative to inner layer of inferior temporal gyrus gray matter” value (5-HT1A receptors; AD samples (individual)) was 1.03 and 1.18 and the “drop in in vitro binding, hippocampus” value (5-HT1A receptors; AD vs control samples) was 60-70%. The “hippocampal binding ratio (BR), CA1 field/subiculum relative to inner layer of inferior temporal gyrus gray matter” value (5-HT1A receptors; control samples (individual)) was 3.29 and 3.00 and 2.98, the “binding ratio (BR), outer layers of gray matter in the inferior temporal gyrus” value (5-HT1A receptors; non-demented cases (individual)) was 1.46 and 1.40 and 2.01 and the “hippocampus total binding potential (BPT=BP×volume)” value (“hippocampus total binding potential” below) ([1]; AD) was 2.24±0.61. The “[F-18]MPPF mean BP ± 1 SD, Frontal Lobe” value ([1]; AD group) was 0.41 ± 0.13, the “[F-18]MPPF mean BP ± 1 SD, Lateral Temporal Lobe” value ([1]; AD group) was 0.73 ± 0.16 and the “[F-18]MPPF mean BP ± 1 SD, Parietal Lobe” value ([1]; AD group) was 0.48 ± 0.13. The “[F-18]MPPF mean BP ± 1 SD, Posterior Cingulate Gyrus” value ([1]; AD group) was 0.56 ± 0.20, the “MPPF accumulation in the hippocampi” value ([1]; AD patients in general) was no more than 50% and the “drop in dorsal raphe nucleus BP values” [1, 2] was 41%. The “drop in hippocampus BP values” [1, 2] was 27%, the “hippocampus BPT lower compared with controls” value ([1]; ADs) was 49% and the “[F-18]MPPF mean BP ± 1 SD, Frontal Lobe” value ([1]; Control group) was 0.49 ± 0.15. For the same compound, the “[F-18]MPPF mean BP ± 1 SD, Hippocampus” value ([1]; Control group) was 1.62±0.07, the “[F-18]MPPF mean BP ± 1 SD, Lateral Temporal Lobe” value ([1]; Control group) was 0.82 ± 0.17 and the “[F-18]MPPF mean BP ± 1 SD, Parietal Lobe” value ([1]; Control group) was 0.63 ± 0.15. For the same compound, the “[F-18]MPPF mean BP ± 1 SD, Posterior Cingulate Gyrus” value ([1]; Control group) was 0.68 ± 0.06, the “[F-18]MPPF mean BP ± 1 SD, Raphe Nuclei” value ([1]; Control group) was 0.63±0.09 and the “hippocampus total binding potential” value ([1]; MCI) was 3.14±0.34. The “[F-18]MPPF mean BP ± 1 SD, Frontal Lobe” value ([1]; MCI group) was 0.44 ± 0.12, the “[F-18]MPPF mean BP ± 1 SD, Lateral Temporal Lobe” value ([1]; MCI group) was 0.80 ± 0.11 and the “[F-18]MPPF mean BP ± 1 SD, Parietal Lobe” value ([1]; MCI group) was 0.43 ± 0.11. The “[F-18]MPPF mean BP ± 1 SD, Posterior Cingulate Gyrus” value ([1]; MCI group) was 0.56 ± 0.12, the “[F-18]MPPF mean BP ± 1 SD, Raphe Nuclei” value ([1]; MCI group) was 0.52 ± 0.11 and the “mean hippocampus BP value lower than in controls” value ([1]; MCI subjects) was 13%. The “hippocampus BPT lower compared with controls” value ([1]; MCIs) was 24% and the “hippocampus total binding potential” value ([1]; controls) was 4.40±0.22.
